Measurements reported in ChEMBL document CHEMBL1201862, “PubChem BioAssay data set” (2004).
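Tested at 5 concentrations; 48 h exposure; 96-well plates; endpoints linearly interpolated, else capped at highest concentration. GI50 marks 50% less growth.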 The source made the active and inactive calls. Cut-off read from the data, not from the text of the source: active = GI50 up to about 1.1 µM and inactive = higher. Where a SMILES comes first, the peptide text is derived from it. The star is where a group is joined. Boc = CC(C)(C)OC(=O)*

Experiments:
Test in all cases: DTP human tumour cell line panel, 48 h
CAKI-1 = tested on: CAKI-1
SNB-75 = tested on: SNB-75
MOLT-4 = tested on: MOLT-4
K562 = tested on: K562
SN12C = tested on: SN12C
HCT-116 = tested on: HCT-116
A549 = tested on: A549
EKVX = tested on: EKVX
SNB-19 = tested on: SNB-19
SF-295 = tested on: SF-295
RPMI-8226 = tested on: RPMI-8226
M14 = tested on: M14
LOX IMVI = tested on: LOX IMVI
OVCAR-3 = tested on: OVCAR-3
HOP-62 = tested on: HOP-62
IGROV-1 = tested on: IGROV-1
RXF 393 = tested on: RXF 393
HCC 2998 = tested on: HCC 2998
NCI-H23 = tested on: NCI-H23
SK-OV-3 = tested on: SK-OV-3

| SMILES | GI50 (CAKI-1) | GI50 (SNB-75) | GI50 (MOLT-4) | GI50 (K562) | GI50 (SN12C) | GI50 (HCT-116) | GI50 (A549) | GI50 (EKVX) | GI50 (SNB-19) | GI50 (SF-295) | GI50 (RPMI-8226) | GI50 (M14) | GI50 (LOX IMVI) | GI50 (OVCAR-3) | GI50 (HOP-62) | GI50 (IGROV-1) | GI50 (RXF 393) | GI50 (HCC 2998) | GI50 (NCI-H23) | GI50 (SK-OV-3) |
| --- | --- | --- | --- | --- | --- | --- | --- | --- | --- | --- | --- | --- | --- | --- | --- | --- | --- | --- | --- | --- |
| COC(=O)c1ccccc1/C=C1\Cc2c(ccc3c2CCC3)C1=O | > 100 µM (inactive) | 39.1 µM (inactive) | > 100 µM (inactive) | > 100 µM (inactive) | > 100 µM (inactive) | > 100 µM (inactive) | > 100 µM (inactive) | > 100 µM (inactive) | > 100 µM (inactive) | > 100 µM (inactive) | > 100 µM (inactive) | > 100 µM (inactive) | > 100 µM (inactive) | > 100 µM (inactive) | 80.5 µM (inactive) | > 100 µM (inactive) | > 100 µM (inactive) | > 100 µM (inactive) | > 100 µM (inactive) | – |
| O=C(NCCc1ccccc1)c1c(O)nc2ccccc2c1O | > 100 µM (inactive) | > 100 µM (inactive) | > 100 µM (inactive) | > 100 µM (inactive) | > 100 µM (inactive) | > 100 µM (inactive) | > 100 µM (inactive) | > 100 µM (inactive) | > 100 µM (inactive) | > 100 µM (inactive) | > 100 µM (inactive) | – | > 100 µM (inactive) | > 100 µM (inactive) | > 100 µM (inactive) | > 100 µM (inactive) | > 100 µM (inactive) | > 100 µM (inactive) | > 100 µM (inactive) | – |
| CSCCCNC(=O)c1csc(-c2csc(CCNC(=O)CNC(=O)CNC(=O)OC(C)(C)C)n2)n1 | > 100 µM (inactive) | 37.2 µM (inactive) | > 100 µM (inactive) | > 100 µM (inactive) | > 100 µM (inactive) | > 100 µM (inactive) | > 100 µM (inactive) | > 100 µM (inactive) | > 100 µM (inactive) | > 100 µM (inactive) | – | > 100 µM (inactive) | > 100 µM (inactive) | > 100 µM (inactive) | > 100 µM (inactive) | > 100 µM (inactive) | > 100 µM (inactive) | > 100 µM (inactive) | > 100 µM (inactive) | > 100 µM (inactive) |
| CC(C)(C)OC(=O)NCC(=O)NCC(=O)NCC(=O)NCC(=O)O (Boc-GGGG-OH) | > 100 µM (inactive) | – | > 100 µM (inactive) | > 100 µM (inactive) | > 100 µM (inactive) | > 100 µM (inactive) | > 100 µM (inactive) | > 100 µM (inactive) | > 100 µM (inactive) | > 100 µM (inactive) | > 100 µM (inactive) | > 100 µM (inactive) | > 100 µM (inactive) | > 100 µM (inactive) | > 100 µM (inactive) | > 100 µM (inactive) | > 100 µM (inactive) | > 100 µM (inactive) | > 100 µM (inactive) | > 100 µM (inactive) |
| COc1ccc(N2C(=O)C(=O)C3(CCCCC3)C2=O)c2ccccc12 | > 10 µM (inactive) | > 10 µM (inactive) | > 10 µM (inactive) | > 10 µM (inactive) | > 10 µM (inactive) | > 10 µM (inactive) | > 10 µM (inactive) | > 10 µM (inactive) | > 10 µM (inactive) | > 10 µM (inactive) | > 10 µM (inactive) | > 10 µM (inactive) | > 10 µM (inactive) | – | > 10 µM (inactive) | > 10 µM (inactive) | > 10 µM (inactive) | > 10 µM (inactive) | > 10 µM (inactive) | > 10 µM (inactive) |
| Cc1nc2ccccc2c(=O)[nH]1 | – | 37.1 µM (inactive) | > 100 µM (inactive) | > 100 µM (inactive) | > 100 µM (inactive) | > 100 µM (inactive) | > 100 µM (inactive) | > 100 µM (inactive) | > 100 µM (inactive) | > 100 µM (inactive) | > 100 µM (inactive) | > 100 µM (inactive) | > 100 µM (inactive) | > 100 µM (inactive) | > 100 µM (inactive) | > 100 µM (inactive) | > 100 µM (inactive) | > 100 µM (inactive) | > 100 µM (inactive) | > 100 µM (inactive) |
| COc1ccc(OC(=O)N2C/C(=C\c3ccccc3)C(=O)/C(=C/c3ccccc3)C2)cc1 | – | 7.83 µM (inactive) | 1.49 µM (inactive) | 0.824 µM (active) | 2.43 µM (inactive) | 0.355 µM (active) | 15.2 µM (inactive) | 16.6 µM (inactive) | 4.62 µM (inactive) | 2.99 µM (inactive) | 0.0476 µM (active) | 2.62 µM (inactive) | 0.962 µM (active) | 6.85 µM (inactive) | 8.15 µM (inactive) | 5.6 µM (inactive) | 2.58 µM (inactive) | 2.9 µM (inactive) | 5.05 µM (inactive) | 8.69 µM (inactive) |
